Measurements: patent US8686224B2, “Plant defense signal peptides” (priority 2005, dated 2014)
“Also recorded” adds a separate entry of the source.

Tests used:
[1] = system: Arabidopsis suspension cultured cells; assay: Alkalinization assay with Arabidopsis suspension cultured cells; type: cell-based, Arabidopsis thaliana; conditions: Arabidopsis suspension cultured cells, pH of media after 20 min
Description: For the alkalinization assay, cells suspensions are grown in a volume of 40 ml in a 125 ml flask. Tobacco and Arabidopsis cells are typically grown for 3-5 days before use. Tomato cells are typically grown for 4-7 days before use. Soybean cells are generally grown for 3-7 days before use. Preferably, cells are in mid to log or log phase when they are to be used for the alkalinization assay. A 1 ml pipette tip with the end cut off (to prevent clogging of the tip with the cells) is used to aliquot 1 ml of the cells from the suspension into a well in a 24-well culture cluster plate. The flask is swirled between aliquots to ensure that the cells remain evenly dispersed throughout the cell suspension and an roughly equivalent number of cells is provided to each well. The plate(s) are then shaken at 160 rpm for 1 hour. Small aliquots ([…]) of extracted peptide fractions are then added to the wells. After 20 min, the pH of the cell media is measured and recorded.
Alkalinization Assay. Arabidopsis suspension cells were grown with shaking in the dark in 125 mL flasks, using 40 mL NT media as previously described (Pearce et al. Proc. Natl. Acad. Sci. USA 98:12843-12847, 2001). The cells were transferred weekly (2.5 mL) and used for assays 3-5 days after transfer. One mL aliquots of cells were transferred to wells of 24-well culture plates and allowed to equilibrate for one hour while agitated on a rotary shaker at 160 rpm. Aliquots of 1-10 μL from extracts or fractions eluted from HPLC columns were added to cells and the pH of the media was monitored after 20 min.
Alkalinization assay. Medium alkalinization activity of Arabidopsis suspension cultured cells by AtPep1 analogs was analyzed as previously described for systemin (Pearce et al., Science 253:895-897, 1991), RALF (Pearce et al. Proc. Natl. Acad. Sci. USA 98:12843-12847, 2001), HypSys peptides (Pearce and Ryan. J. Biol. Chem. 278:30044-30050, 2003; Pearce et al., Nature 411:817-820, 2001), and AtPep1 (supra). The alkalinization activity of azido-Cys-AtPep1 were carried out after incubation the analog with cells in darkness for 10 min, when the pH was recorded.
Analogs of AtPep1 from the C-terminus of AtPep1 were synthesized and assayed in the alkalinization assay. One mL aliquots of 4 day old Arabidopsis cells were allowed to equilibrate on an orbital shaker at 180 rpm for one hour. A 10 μL aliquot of each peptide solution was added to the cells. Peptide concentrations of 0.25 nM, 2.5 nM, and 25 nM were tested. After 20 min, the pH of the media was recorded.
The 15-mer from the carboxy-terminus of AtPep1 ([…] (SEQ ID NO: 78)) was substituted with alanine at each position to assess which amino acids were necessary for the alkalinizing activity. […] The set of substituted 15-mer peptides was assayed using four-day-old Arabidopsis cells. […] of each peptide (2.5 pmoles) was added to 1 ml of cells to make a final concentration of 2.5 nM. After 20 min, the pH of the media was recorded. The data is the average of three separate experiments.

AtPEPR1 = target: T1, AtPEPR1 (Arabidopsis thaliana, UniProt Q9SSL9); assay: Photoaffinity labeling of transgenic tobacco cells expressing AtPEPR1; type: binding; conditions: 50 nM unlabeled competitor, 0.25 nM label
T1 construct: Tobacco cells were transformed with a CaMV-35S-AtPEPR1 gene; expressed in transfected cells; host or cells: tobacco suspension-cultured cells (Agrobacterium-mediated, CaMV 35S promoter)
T1 sequence (Q9SSL9 29-1123): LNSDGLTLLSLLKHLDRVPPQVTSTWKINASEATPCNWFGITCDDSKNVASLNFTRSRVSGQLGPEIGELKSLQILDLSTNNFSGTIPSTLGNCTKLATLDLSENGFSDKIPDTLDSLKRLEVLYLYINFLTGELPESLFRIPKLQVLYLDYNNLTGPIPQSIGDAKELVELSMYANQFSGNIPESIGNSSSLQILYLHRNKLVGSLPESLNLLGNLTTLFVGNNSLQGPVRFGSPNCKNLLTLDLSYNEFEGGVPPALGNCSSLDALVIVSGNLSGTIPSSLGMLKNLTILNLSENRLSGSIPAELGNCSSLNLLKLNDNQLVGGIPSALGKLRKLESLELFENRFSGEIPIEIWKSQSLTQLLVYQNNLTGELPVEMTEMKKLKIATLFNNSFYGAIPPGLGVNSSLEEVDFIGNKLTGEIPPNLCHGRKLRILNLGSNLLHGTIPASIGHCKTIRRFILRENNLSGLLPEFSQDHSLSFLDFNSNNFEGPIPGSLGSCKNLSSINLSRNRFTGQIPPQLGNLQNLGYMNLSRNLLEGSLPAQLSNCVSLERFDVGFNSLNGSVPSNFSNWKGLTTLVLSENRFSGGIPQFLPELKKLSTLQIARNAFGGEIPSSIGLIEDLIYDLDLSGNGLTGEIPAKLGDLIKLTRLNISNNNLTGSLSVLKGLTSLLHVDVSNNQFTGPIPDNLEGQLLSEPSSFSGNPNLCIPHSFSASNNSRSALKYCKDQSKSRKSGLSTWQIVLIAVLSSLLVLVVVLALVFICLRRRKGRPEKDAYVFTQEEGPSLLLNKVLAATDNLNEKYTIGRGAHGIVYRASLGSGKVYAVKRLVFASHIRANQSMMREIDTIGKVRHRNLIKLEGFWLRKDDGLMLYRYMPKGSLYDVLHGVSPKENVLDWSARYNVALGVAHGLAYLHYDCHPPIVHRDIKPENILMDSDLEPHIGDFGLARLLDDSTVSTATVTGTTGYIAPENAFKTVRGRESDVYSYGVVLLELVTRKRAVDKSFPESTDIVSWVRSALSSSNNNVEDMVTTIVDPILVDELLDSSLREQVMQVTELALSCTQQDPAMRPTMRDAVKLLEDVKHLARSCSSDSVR
Description: For final confirmation, a photoaffinity-labeling experiment was performed using the transgenic tobacco cells. The transgenic cells were incubated with 0.25 nM ^125I1-azido-Cys-AtPep1 (Yamaguchi et al., Proc. Natl. Acad. Sci. USA 103: 10104-10109, 2006) and irradiated with UV-B to cross-link the AtPep1-binding proteins. After separation of extracted proteins by SDS-PAGE, the labeled proteins were detected on X-ray film. […] Since no specific labeling was detected in wild type tobacco and GUS expressing cells, the proteins labeled specifically by ^125I1-azido-Cys-AtPep1 in AtPEPR1 and AtPEPR2 expressing cells were products from the AtPEPR1 and AtPEPR2 genes.

**Q.** What does the source list for H-ATKVKAKQRGKEKVSSGRPGQHN-OH [AtPep1]?
**A.** activity in the alkalinization assay [1]: at sub-nanomolar concentrations, to cause an alkalinization response; also recorded: as active as the native AtPep1; also recorded: identical activities as the native peptides; EC50 ([1]; read-out: half-maximal activity in the alkalinization assay): 0.25 nM; labeling of the 170 kDa protein by 125I1-azido-Cys-AtPep1 with competitor (AtPEPR1): not in the cells incubated with 50 nM unlabeled AtPep1
